Source: paper PMC5352051, “Identification of a novel Polo-like kinase 1 inhibitor that specifically blocks the functions of Polo-Box domain” (Oncotarget, 2016)

Assays:
Plk3 PBD = biological target: T1, Plk3 PBD (Homo sapiens, UniProt Q9H4B4); assay: Fluorescence polarization assay, Plk3 PBD / FITC-labeled phosphopeptide; type: binding; conditions: Plk3 PBD
T1 construct: (326-603 aa), Plk2 (355-685 aa), and Plk3 (335-646 aa); GST (N); made in house; host or cells: E. coli Rosetta BL21(DE3)
T1 sequence (Q9H4B4 335-646): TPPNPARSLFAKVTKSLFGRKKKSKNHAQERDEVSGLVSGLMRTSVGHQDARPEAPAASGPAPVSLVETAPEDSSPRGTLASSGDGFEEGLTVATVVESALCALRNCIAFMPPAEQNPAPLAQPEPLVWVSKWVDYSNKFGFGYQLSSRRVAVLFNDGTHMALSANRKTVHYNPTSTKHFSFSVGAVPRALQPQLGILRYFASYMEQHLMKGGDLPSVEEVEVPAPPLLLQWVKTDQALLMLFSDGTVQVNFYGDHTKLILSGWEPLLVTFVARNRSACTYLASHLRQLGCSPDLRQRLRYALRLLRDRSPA
Description: FP assay was performed as follow. […] We calculated the percentage of inhibition for each sample as follows: Inhibition(%)=Negative−Sample/Negative−Positive×100%
We plotted the inhibition values and determined IC50 using GraphPad Prism5.0. Together with the FITC-labeled peptides used for Plk1 PBD as mentioned above, the following peptides were used for specificity assays, FITC-GPMQTSpTPKNG-OH (Plk2 PBD), FITC-GPLATSpTPKNG-OH (Plk3 PBD).

Plk1-Bub1 interaction = biological target: T2, Plk1-Bub1 interaction (Homo sapiens, UniProt P53350); assay: Co-immunoprecipitation (IP) assay in HeLa cells; type: cell-based; conditions: HeLa cells released from double-thymidine arrest, 5, 10, 15 μM, 10 hrs
T2 construct: endogenous in cells; host or cells: HeLa
Description: HeLa cells were synchronized in G1/S boundary by double-thymidine block as described, and then released into medium containing DMSO and T521 (5, 10, 15 μM) for 10 hrs. For Co-IP assay, rabbit polyclonal anti-Bub1 antibody (Cat# ab70372; Abcam) was coupled to Protein A-Agarose beads (Cat# sc-2001; Santa Cruz) at a concentration 100 μg/mL. Treated HeLa cells were lysed with RIPA buffer. After clearing by centrifugation, the lysate was incubated with the beads coupled to anti-Bub1 antibody for 2 hrs at 4°C. The beads were washed with the lysis buffer for three times. The proteins bound to the beads were dissolved in loading buffer and separated by 10% SDS-PAGE, and probed with the mouse monoclonal anti-hPlk1 antibody (Cat# P5998; Sigma; 1:3000) and rabbit polyclonal anti-Bub1 antibody (Cat# ab70372;Abcam; 1:2000), respectively.

Plk1 = biological target: T3, Plk1 (Homo sapiens, UniProt P53350); assay: HPLC-Q-TOF mass spectrometry of intact protein after incubation; type: binding; conditions: Plk1 10 μM, T521 500 μM, 50 mM Tris-HCl pH8.0, RT, 30 min
T3 construct: purchased Sino Biological Inc
Description: (§1) The covalent binding mode was speculated from the interactions between Poloxin, TQ and Plk1 PBD [23]. […] To test this possibility, we incubated purified Plk1 (10 μM) with T521 (500 μM) in 50 mM Tris-HCl (pH8.0) at room temperature for 30 min. […] In contrast, no addition of T521 to Plk2 or Plk3 was detected after their incubation with T521 (Supplementary Figure S1C, S1D, S1E and S1F).
(§2) Supplementary Figure S1: Analysis of binding mode between T521 and Plk1-3 using HPLC-Q-TOF MS. Plk1-3 (10 μM) proteins were incubated with or without T521 (500 μM) in 50 mM Tris-HCl (pH8.0) at RT for 30 min. The desalted samples (5 μg) were eluted with an HPLC gradient program into a Q-TOF mass spectrometer (Agilent, USA). Mass spectra were obtained after deconvolution.
(§3) A, C, E. The analysis of Plk1-3 proteins after incubation in the absence of T521. B, D, F. The analysis of Plk1-3 proteins after incubation […]
(§4) (also on this page, place not known: www.impactjournals.com/oncotarget/ Oncotarget, Materials 2016 Supplementary) […]

Plk3 = biological target: T4, Plk3 (Homo sapiens, UniProt Q9H4B4); assay: as above; type: binding; conditions: Plk3 10 μM, T521 500 μM, RT, 30 min
T4 construct: purchased Sino Biological Inc
Description: as §1, §2, §3, §4

Plk2 = biological target: T5, Plk2 (Homo sapiens, UniProt Q9NYY3); assay: as above; type: binding; conditions: Plk2 10 μM, T521 500 μM, RT, 30 min
T5 construct: purchased Sino Biological Inc
Description: as §1, §2, §3, §4

[1] = test system: 12 human cancer cell lines; assay: MTT assay, panel of cancer cell lines; type: cell-based; conditions: all tested 12 human cancer cell lines; read-out: IC50 proliferation, range over cell lines
Description: The MTT assay was performed as described. In brief, cells were seeded at 3000~5000 cells/well into 96-well plates (200 μL/well) and incubated overnight. We replaced the growth medium with fresh medium containing T521 at several concentrations (two-fold dilutions and the initial concentration is 50 μM, 10 reactions total). After further incubation for 48 hrs in the presence of T521, the medium was removed from all wells and the cells were incubated with 200 μL of fresh medium for additional 24 hrs. We then added 22 μL of MTT solution (Amresco; 5 mg/mL in PBS) to each well and incubated the plate for 4 hrs at 37°C. After removing the medium, we dissolved the purple MTT-formazan crystals by adding 150 μL of DMSO to each well and recorded absorbance at 560 nm by Envision Multilabel Reader (PerkinElmer). The inhibition curve was plotted to determine the IC50 of various cell lines using GraphPad Prism5.0.

[2] = Body weight of xenografted nude mice (tolerability); type: in vivo; conditions: intratumoral injection 50 and 100 mg/kg, 5 weeks, vs control
Description: Female athymic nude mice were injected with 2.0 × 10^7 A549 lung-carcinoma cells subcutaneously. After 14~20 days, when the tumor volumes reached 100~150 mm^3, animals were divided into treatment (T521; 50, 100 mg/kg) and control (DMSO) groups with ten mice in each group. T521 (0.2 g/mL) dissolved in DMSO was administered alone and mice were treated with T521 by intratumoral injection at the different injection points according to indicated dose on Wednesdays and Fridays for 5 weeks. Tumor volumes were determined with a caliper on Monday and Thursday during drug administration cycle. Tumor volume (mm^3) was calculated using the following equation: V=L×S^2×π/6, where L is the length and S is width of the tumor. The body weight of these mice was determined as an indicator of tolerability on the same days. Student's t-tests were performed for statistical evaluation among treatment and control groups. All mice were properly treated in accordance with the guidelines of the local animal committee.

T5 sequence (Q9NYY3 whole entry): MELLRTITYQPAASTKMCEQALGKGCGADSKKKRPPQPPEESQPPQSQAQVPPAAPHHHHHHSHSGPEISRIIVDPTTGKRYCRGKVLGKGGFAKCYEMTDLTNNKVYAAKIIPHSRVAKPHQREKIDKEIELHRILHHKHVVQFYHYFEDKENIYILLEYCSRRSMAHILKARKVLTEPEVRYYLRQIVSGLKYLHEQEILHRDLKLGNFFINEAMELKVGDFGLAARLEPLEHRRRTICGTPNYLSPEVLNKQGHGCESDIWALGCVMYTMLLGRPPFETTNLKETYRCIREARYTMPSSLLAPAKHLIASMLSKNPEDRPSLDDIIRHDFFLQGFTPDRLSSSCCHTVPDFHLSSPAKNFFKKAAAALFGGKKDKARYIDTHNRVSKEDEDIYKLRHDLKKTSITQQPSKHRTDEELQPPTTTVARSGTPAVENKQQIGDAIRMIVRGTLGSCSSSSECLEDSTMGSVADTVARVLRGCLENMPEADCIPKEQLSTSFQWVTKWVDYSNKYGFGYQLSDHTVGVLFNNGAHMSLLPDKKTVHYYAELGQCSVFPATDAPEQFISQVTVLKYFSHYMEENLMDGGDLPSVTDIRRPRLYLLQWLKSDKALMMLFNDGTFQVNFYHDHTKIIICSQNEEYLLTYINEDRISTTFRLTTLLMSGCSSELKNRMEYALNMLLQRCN
T4 sequence (Q9H4B4 whole entry): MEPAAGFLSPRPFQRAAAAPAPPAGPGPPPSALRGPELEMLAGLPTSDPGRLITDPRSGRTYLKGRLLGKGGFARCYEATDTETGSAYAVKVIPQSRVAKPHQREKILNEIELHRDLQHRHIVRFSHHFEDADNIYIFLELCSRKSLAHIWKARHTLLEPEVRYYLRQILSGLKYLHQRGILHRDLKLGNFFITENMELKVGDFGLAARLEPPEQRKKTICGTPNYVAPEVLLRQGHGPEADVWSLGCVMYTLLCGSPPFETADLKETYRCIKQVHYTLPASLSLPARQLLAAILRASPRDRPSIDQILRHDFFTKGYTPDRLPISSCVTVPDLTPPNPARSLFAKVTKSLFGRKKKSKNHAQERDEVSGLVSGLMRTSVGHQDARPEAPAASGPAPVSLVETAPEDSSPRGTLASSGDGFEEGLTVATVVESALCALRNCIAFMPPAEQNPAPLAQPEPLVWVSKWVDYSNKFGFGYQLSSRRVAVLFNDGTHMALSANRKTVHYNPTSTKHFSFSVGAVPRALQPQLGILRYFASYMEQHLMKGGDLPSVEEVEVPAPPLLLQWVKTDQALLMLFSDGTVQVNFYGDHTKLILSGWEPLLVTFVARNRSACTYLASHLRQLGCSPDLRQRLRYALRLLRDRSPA
T3 sequence (P53350 whole entry): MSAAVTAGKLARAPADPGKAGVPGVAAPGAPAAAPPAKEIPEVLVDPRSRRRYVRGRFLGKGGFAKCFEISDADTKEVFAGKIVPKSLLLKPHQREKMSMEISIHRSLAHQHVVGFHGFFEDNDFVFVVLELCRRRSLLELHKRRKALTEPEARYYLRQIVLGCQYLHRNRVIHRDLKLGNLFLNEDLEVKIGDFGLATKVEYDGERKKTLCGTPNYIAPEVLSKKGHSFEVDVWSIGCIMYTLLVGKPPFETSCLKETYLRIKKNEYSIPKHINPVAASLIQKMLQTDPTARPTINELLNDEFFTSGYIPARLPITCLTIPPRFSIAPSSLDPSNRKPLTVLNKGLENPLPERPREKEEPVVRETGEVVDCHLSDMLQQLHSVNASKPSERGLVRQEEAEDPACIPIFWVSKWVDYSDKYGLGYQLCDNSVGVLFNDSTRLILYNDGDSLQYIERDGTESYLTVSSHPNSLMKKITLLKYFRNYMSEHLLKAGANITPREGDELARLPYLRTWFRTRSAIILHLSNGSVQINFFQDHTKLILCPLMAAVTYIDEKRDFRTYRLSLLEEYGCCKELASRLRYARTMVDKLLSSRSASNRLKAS
T2 sequence (P53350 2-603 limits assumed): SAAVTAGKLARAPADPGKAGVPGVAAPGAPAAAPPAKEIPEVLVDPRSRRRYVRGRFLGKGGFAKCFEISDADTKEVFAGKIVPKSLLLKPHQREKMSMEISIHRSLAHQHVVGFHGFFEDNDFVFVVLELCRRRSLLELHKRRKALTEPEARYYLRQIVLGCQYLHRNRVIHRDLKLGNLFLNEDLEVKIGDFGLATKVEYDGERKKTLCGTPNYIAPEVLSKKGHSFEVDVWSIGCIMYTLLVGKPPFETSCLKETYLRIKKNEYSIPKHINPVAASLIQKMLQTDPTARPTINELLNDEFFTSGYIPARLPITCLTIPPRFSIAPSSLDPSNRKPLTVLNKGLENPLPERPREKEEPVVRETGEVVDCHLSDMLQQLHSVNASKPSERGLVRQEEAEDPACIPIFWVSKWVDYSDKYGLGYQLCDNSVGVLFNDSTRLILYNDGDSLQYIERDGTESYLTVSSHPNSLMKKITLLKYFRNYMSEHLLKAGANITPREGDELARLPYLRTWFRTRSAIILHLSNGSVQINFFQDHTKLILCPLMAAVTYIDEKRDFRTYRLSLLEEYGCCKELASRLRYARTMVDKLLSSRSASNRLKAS

CCS(=O)(=O)c1oc(-c2ccc(F)cc2)nc1S(=O)(=O)c1ccccc1 [T521, 5-(ethylsulfonyl)-2-(4-fluorophenyl)-4-(phenylsulfonyl) oxazole]
IC50 (Plk3 PBD; FP assay, 1 hr preincubation at RT, read-out: Apparent IC50): > 500 µM
inhibition of binding of PBD to FITC-labeled phosphopeptide (Plk3 PBD; concentration as high as 500 μM): little inhibition
Plk1 protein level in Bub1 immunoprecipitates (Plk1-Bub1 interaction): clear decrease
increase of intact mass of protein (covalent addition) (Plk1): 907.05 Da
covalent addition to protein (Plk3): no addition
covalent addition to protein (Plk2): no addition
IC50 [1]: 1 to 5 µM
tolerability by body weight [2]: well tolerated
